Results: patent publication US20230017045A1, “PYRIDINE AND PYRIMIDINE CARBOXYLATE HERBICIDES AND METHODS OF USE THEREOF” (Dow AgroSciences LLC, priority 2017, published 2023)

test system: test plant species; experiment: Post-emergent herbicidal activity test (greenhouse, foliar spray, visual growth reduction); type: in vivo; settings: post-emergence, 336 h, ECHCG: barnyardgrass (Echinochloa crus-galli), 140 g ai/ha, 14 days after application, read-out: Visual Growth Reduction (%) 14 Days After Application, ECHCG
Procedure, shortened: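 Greenhouse plants at first–second true leaf stage sprayed overhead at 187 L/ha with compound in acetone/water/isopropanol/DMSO/crop oil/X-77 carrier; controls received solvent blank. Injury rated visually after 14 d on a 0–100% scale versus untreated and control plants, converted to growth reduction.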

SMILES	pest or weed control at 140 g/ha [%]
COC(=O)c1nc(-c2ccc(Cl)c(C(F)F)c2Cl)ccc1Cl [F281, Methyl 3-chloro-6-(2,4-dichloro-3-(difluoromethyl)phenyl)picolinate]	0 to 29
COC(=O)c1nc(-c2cc3c(cc2OC)OC(F)(F)O3)ccc1Cl [F353, Methyl 3-chloro-6-(2,2-difluoro-6-methoxybenzo[d][1,3]dioxol-5-yl)picolinate]	0 to 29
COC(=O)c1nc(-c2cc3nonc3cc2F)c(F)cc1Cl [F318, Methyl 3-chloro-5-fluoro-6-(6-fluorobenzo[c][1,2,5]oxadiazol-5-yl)picolinate]	85 to 94

same assay, conditions: post-emergence, 336 h, IPOHE: ivy-leaf morning glory (Ipomoea hederacea), 140 g ai/ha, 14 days after application, read-out: Visual Growth Reduction (%) 14 Days After Application, IPOHE

SMILES	pest or weed control at 140 g/ha [%]
COC(=O)c1nc(-c2ccc(Cl)c(C(F)F)c2Cl)ccc1Cl [F281, Methyl 3-chloro-6-(2,4-dichloro-3-(difluoromethyl)phenyl)picolinate]	85 to 94
COC(=O)c1nc(-c2cc3c(cc2OC)OC(F)(F)O3)ccc1Cl [F353, Methyl 3-chloro-6-(2,2-difluoro-6-methoxybenzo[d][1,3]dioxol-5-yl)picolinate]	95 to 100
COC(=O)c1nc(-c2cc3nonc3cc2F)c(F)cc1Cl [F318, Methyl 3-chloro-5-fluoro-6-(6-fluorobenzo[c][1,2,5]oxadiazol-5-yl)picolinate]	95 to 100

same assay, conditions: post-emergence, 336 h, KCHSC: kochia (Bassia scoparia), 140 g ai/ha, 14 days after application, read-out: Visual Growth Reduction (%) 14 Days After Application, KCHSC

SMILES	pest or weed control at 140 g/ha [%]
COC(=O)c1nc(-c2ccc(Cl)c(C(F)F)c2Cl)ccc1Cl [F281, Methyl 3-chloro-6-(2,4-dichloro-3-(difluoromethyl)phenyl)picolinate]	0 to 29
COC(=O)c1nc(-c2cc3c(cc2OC)OC(F)(F)O3)ccc1Cl [F353, Methyl 3-chloro-6-(2,2-difluoro-6-methoxybenzo[d][1,3]dioxol-5-yl)picolinate]	0 to 29
COC(=O)c1nc(-c2cc3nonc3cc2F)c(F)cc1Cl [F318, Methyl 3-chloro-5-fluoro-6-(6-fluorobenzo[c][1,2,5]oxadiazol-5-yl)picolinate]	0 to 29

same assay, conditions: post-emergence, 336 h, ORYSA: rice (Oryza sativa), 140 g ai/ha, 14 days after application, read-out: Visual Growth Reduction (%) 14 Days After Application, ORYSA

SMILES	pest or weed control at 140 g/ha [%]
COC(=O)c1nc(-c2ccc(Cl)c(C(F)F)c2Cl)ccc1Cl [F281, Methyl 3-chloro-6-(2,4-dichloro-3-(difluoromethyl)phenyl)picolinate]	0 to 29
COC(=O)c1nc(-c2cc3c(cc2OC)OC(F)(F)O3)ccc1Cl [F353, Methyl 3-chloro-6-(2,2-difluoro-6-methoxybenzo[d][1,3]dioxol-5-yl)picolinate]	0 to 29
COC(=O)c1nc(-c2cc3nonc3cc2F)c(F)cc1Cl [F318, Methyl 3-chloro-5-fluoro-6-(6-fluorobenzo[c][1,2,5]oxadiazol-5-yl)picolinate]	0 to 29

same assay, conditions: post-emergence, 336 h, SETFA: giant foxtail (Setaria faberi), 140 g ai/ha, 14 days after application, read-out: Visual Growth Reduction (%) 14 Days After Application, SETFA

SMILES	pest or weed control at 140 g/ha [%]
COC(=O)c1nc(-c2ccc(Cl)c(C(F)F)c2Cl)ccc1Cl [F281, Methyl 3-chloro-6-(2,4-dichloro-3-(difluoromethyl)phenyl)picolinate]	30 to 44
COC(=O)c1nc(-c2cc3c(cc2OC)OC(F)(F)O3)ccc1Cl [F353, Methyl 3-chloro-6-(2,2-difluoro-6-methoxybenzo[d][1,3]dioxol-5-yl)picolinate]	0 to 29
COC(=O)c1nc(-c2cc3nonc3cc2F)c(F)cc1Cl [F318, Methyl 3-chloro-5-fluoro-6-(6-fluorobenzo[c][1,2,5]oxadiazol-5-yl)picolinate]	75 to 84

same assay, conditions: post-emergence, 336 h, SORVU: grain sorghum (Sorghum vulgare), 140 g ai/ha, 14 days after application, read-out: Visual Growth Reduction (%) 14 Days After Application, SORVU

SMILES	pest or weed control at 140 g/ha [%]
COC(=O)c1nc(-c2ccc(Cl)c(C(F)F)c2Cl)ccc1Cl [F281, Methyl 3-chloro-6-(2,4-dichloro-3-(difluoromethyl)phenyl)picolinate]	85 to 94
COC(=O)c1nc(-c2cc3c(cc2OC)OC(F)(F)O3)ccc1Cl [F353, Methyl 3-chloro-6-(2,2-difluoro-6-methoxybenzo[d][1,3]dioxol-5-yl)picolinate]	45 to 59
COC(=O)c1nc(-c2cc3nonc3cc2F)c(F)cc1Cl [F318, Methyl 3-chloro-5-fluoro-6-(6-fluorobenzo[c][1,2,5]oxadiazol-5-yl)picolinate]	85 to 94

same assay, conditions: post-emergence, 336 h, STEME: common chickweed (Stellaria media), 140 g ai/ha, 14 days after application, read-out: Visual Growth Reduction (%) 14 Days After Application, STEME

SMILES	pest or weed control at 140 g/ha [%]
COC(=O)c1nc(-c2ccc(Cl)c(C(F)F)c2Cl)ccc1Cl [F281, Methyl 3-chloro-6-(2,4-dichloro-3-(difluoromethyl)phenyl)picolinate]	0 to 29
COC(=O)c1nc(-c2cc3c(cc2OC)OC(F)(F)O3)ccc1Cl [F353, Methyl 3-chloro-6-(2,2-difluoro-6-methoxybenzo[d][1,3]dioxol-5-yl)picolinate]	0 to 29
COC(=O)c1nc(-c2cc3nonc3cc2F)c(F)cc1Cl [F318, Methyl 3-chloro-5-fluoro-6-(6-fluorobenzo[c][1,2,5]oxadiazol-5-yl)picolinate]	0 to 29

same assay, conditions: post-emergence, 336 h, TRZAS: wheat, spring (Triticum aestivum), 140 g ai/ha, 14 days after application, read-out: Visual Growth Reduction (%) 14 Days After Application, TRZAS

SMILES	pest or weed control at 140 g/ha [%]
COC(=O)c1nc(-c2ccc(Cl)c(C(F)F)c2Cl)ccc1Cl [F281, Methyl 3-chloro-6-(2,4-dichloro-3-(difluoromethyl)phenyl)picolinate]	0 to 29
COC(=O)c1nc(-c2cc3c(cc2OC)OC(F)(F)O3)ccc1Cl [F353, Methyl 3-chloro-6-(2,2-difluoro-6-methoxybenzo[d][1,3]dioxol-5-yl)picolinate]	0 to 29
COC(=O)c1nc(-c2cc3nonc3cc2F)c(F)cc1Cl [F318, Methyl 3-chloro-5-fluoro-6-(6-fluorobenzo[c][1,2,5]oxadiazol-5-yl)picolinate]	0 to 29

same assay, conditions: post-emergence, 336 h, blackgrass (Alopecurus myosuroides), 14 Days After Application, 140 g ai/ha, read-out: Visual Growth Reduction (%) ALOMY

SMILES	pest or weed control at 140 g/ha [%]
COC(=O)c1nc(-c2ccc(Cl)c(C(F)F)c2Cl)ccc1Cl [F281, Methyl 3-chloro-6-(2,4-dichloro-3-(difluoromethyl)phenyl)picolinate]	0 to 29
COC(=O)c1nc(-c2cc3c(cc2OC)OC(F)(F)O3)ccc1Cl [F353, Methyl 3-chloro-6-(2,2-difluoro-6-methoxybenzo[d][1,3]dioxol-5-yl)picolinate]	0 to 29
COC(=O)c1nc(-c2cc3nonc3cc2F)c(F)cc1Cl [F318, Methyl 3-chloro-5-fluoro-6-(6-fluorobenzo[c][1,2,5]oxadiazol-5-yl)picolinate]	0 to 29

same assay, conditions: post-emergence, 336 h, canada thistle (Cirsium arvense), 14 Days After Application, 140 g ai/ha, read-out: Visual Growth Reduction (%) CIRAR

SMILES	pest or weed control at 140 g/ha [%]
COC(=O)c1nc(-c2ccc(Cl)c(C(F)F)c2Cl)ccc1Cl [F281, Methyl 3-chloro-6-(2,4-dichloro-3-(difluoromethyl)phenyl)picolinate]	0 to 29
COC(=O)c1nc(-c2cc3c(cc2OC)OC(F)(F)O3)ccc1Cl [F353, Methyl 3-chloro-6-(2,2-difluoro-6-methoxybenzo[d][1,3]dioxol-5-yl)picolinate]	0 to 29
COC(=O)c1nc(-c2cc3nonc3cc2F)c(F)cc1Cl [F318, Methyl 3-chloro-5-fluoro-6-(6-fluorobenzo[c][1,2,5]oxadiazol-5-yl)picolinate]	0 to 29

same assay, conditions: post-emergence, 336 h, crabgrass (Digitaria sanguinalis), 14 Days After Application, 140 g ai/ha, read-out: Visual Growth Reduction (%) DIGSA

SMILES	pest or weed control at 140 g/ha [%]
COC(=O)c1nc(-c2ccc(Cl)c(C(F)F)c2Cl)ccc1Cl [F281, Methyl 3-chloro-6-(2,4-dichloro-3-(difluoromethyl)phenyl)picolinate]	0 to 29
COC(=O)c1nc(-c2cc3c(cc2OC)OC(F)(F)O3)ccc1Cl [F353, Methyl 3-chloro-6-(2,2-difluoro-6-methoxybenzo[d][1,3]dioxol-5-yl)picolinate]	0 to 29
COC(=O)c1nc(-c2cc3nonc3cc2F)c(F)cc1Cl [F318, Methyl 3-chloro-5-fluoro-6-(6-fluorobenzo[c][1,2,5]oxadiazol-5-yl)picolinate]	85 to 94

same assay, conditions: post-emergence, 336 h, lambsquarters (Chenopodium album), 14 Days After Application, 140 g ai/ha, read-out: Visual Growth Reduction (%) CHEAL

SMILES	pest or weed control at 140 g/ha [%]
COC(=O)c1nc(-c2ccc(Cl)c(C(F)F)c2Cl)ccc1Cl [F281, Methyl 3-chloro-6-(2,4-dichloro-3-(difluoromethyl)phenyl)picolinate]	85 to 94
COC(=O)c1nc(-c2cc3c(cc2OC)OC(F)(F)O3)ccc1Cl [F353, Methyl 3-chloro-6-(2,2-difluoro-6-methoxybenzo[d][1,3]dioxol-5-yl)picolinate]	45 to 59
COC(=O)c1nc(-c2cc3nonc3cc2F)c(F)cc1Cl [F318, Methyl 3-chloro-5-fluoro-6-(6-fluorobenzo[c][1,2,5]oxadiazol-5-yl)picolinate]	60 to 74

same assay, conditions: post-emergence, 336 h, redroot pigweed (Amaranthus retroflexus), 14 Days After Application, 140 g ai/ha, read-out: Visual Growth Reduction (%) AMARE

SMILES	pest or weed control at 140 g/ha [%]
COC(=O)c1nc(-c2ccc(Cl)c(C(F)F)c2Cl)ccc1Cl [F281, Methyl 3-chloro-6-(2,4-dichloro-3-(difluoromethyl)phenyl)picolinate]	75 to 84
COC(=O)c1nc(-c2cc3c(cc2OC)OC(F)(F)O3)ccc1Cl [F353, Methyl 3-chloro-6-(2,2-difluoro-6-methoxybenzo[d][1,3]dioxol-5-yl)picolinate]	0 to 29
COC(=O)c1nc(-c2cc3nonc3cc2F)c(F)cc1Cl [F318, Methyl 3-chloro-5-fluoro-6-(6-fluorobenzo[c][1,2,5]oxadiazol-5-yl)picolinate]	60 to 74

same assay, conditions: post-emergence, 336 h, wild oat (Avena fatua), 14 Days After Application, 140 g ai/ha, read-out: Visual Growth Reduction (%) AVEFA

SMILES	pest or weed control at 140 g/ha [%]
COC(=O)c1nc(-c2ccc(Cl)c(C(F)F)c2Cl)ccc1Cl [F281, Methyl 3-chloro-6-(2,4-dichloro-3-(difluoromethyl)phenyl)picolinate]	0 to 29
COC(=O)c1nc(-c2cc3c(cc2OC)OC(F)(F)O3)ccc1Cl [F353, Methyl 3-chloro-6-(2,2-difluoro-6-methoxybenzo[d][1,3]dioxol-5-yl)picolinate]	0 to 29
COC(=O)c1nc(-c2cc3nonc3cc2F)c(F)cc1Cl [F318, Methyl 3-chloro-5-fluoro-6-(6-fluorobenzo[c][1,2,5]oxadiazol-5-yl)picolinate]	0 to 29

same assay, conditions: post-emergence, 336 h, yellow nutsedge (Cyperus esculentus), 14 Days After Application, 140 g ai/ha, read-out: Visual Growth Reduction (%) CYPES

SMILES	pest or weed control at 140 g/ha [%]
COC(=O)c1nc(-c2ccc(Cl)c(C(F)F)c2Cl)ccc1Cl [F281, Methyl 3-chloro-6-(2,4-dichloro-3-(difluoromethyl)phenyl)picolinate]	0 to 29
COC(=O)c1nc(-c2cc3c(cc2OC)OC(F)(F)O3)ccc1Cl [F353, Methyl 3-chloro-6-(2,2-difluoro-6-methoxybenzo[d][1,3]dioxol-5-yl)picolinate]	0 to 29
COC(=O)c1nc(-c2cc3nonc3cc2F)c(F)cc1Cl [F318, Methyl 3-chloro-5-fluoro-6-(6-fluorobenzo[c][1,2,5]oxadiazol-5-yl)picolinate]	0 to 29
